# Laboratory results: patent publication US7939534B2, “Certain chemical entities, compositions, and methods” (Cytokinetics, Inc., priority 2006, dated 2011)
# pIC50: −log10 of the molar value.
# Target: T1, chicken gizzard smooth muscle myosin subfragment-1 chemically crosslinked to either cardiac or skeletal actin (Gallus gallus, UniProt P10587)
# T1 construct: chicken gizzard smooth muscle myosin subfragment-1; from tissue; host or cells: chicken gizzard
# Test: Dose dependent smooth muscle myosin ATPase modulation (pyruvate kinase/horseradish peroxidase/pyruvate oxidase-coupled ATPase assay)
# Type: biochemical
# Conditions: read-out: IC50 Arithmetic Mean
# Procedure, shortened: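 Chicken gizzard smooth muscle myosin S1 crosslinked (EDC/NHS) to cardiac or skeletal actin, concentration titrated to a set ATPase rate. Pyruvate kinase/pyruvate oxidase/HRP-coupled assay, 0.15 mM ATP, 12 mM K-PIPES pH 7.00, 100 mM KCl, amplex red fluorescence; IC50 from 4-parameter fit.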
row,Structure (SMILES),pIC50
1,"O=C(NCc1cccnc1)c1ccc(N2CCOCC2)nc1NCCc1cccc(F)c1 [Compound 87, (2-{[2-(3-fluorophenyl)ethyl]amino}-6-morpholin-4-yl(3-pyridyl))-N-(3-pyridylmethyl)carboxamide]",5.57
2,"O=C(NCc1cccnc1)c1ccc(N2CCC[C@@H]2CO)nc1NCCc1cccc(F)c1 [Compound 88, (6-[(2R)-2-(hydroxymethyl)pyrrolidinyl]-2-{[2-(3-fluorophenyl)ethyl]amino}(3-pyridyl))-N-(3-pyridylmethyl)carboxamide]",4.98
3,"CNC(=O)CNC(=O)c1ccc(N2CC[C@H](O)C2)nc1NCCc1cccc(F)c1 [Compound 89, 2-[(6-((3S)-3-hydroxypyrrolidinyl)-2-{[2-(3-fluorophenyl)ethyl]amino}(3-pyridyl))carbonylamino]-N-methylacetamide]",5.08
4,"CC(C)(C)OC(=O)NC1CCN(c2ccc(C(=O)NCc3cccnc3)c(NCCc3cccc(F)c3)n2)C1 (stereo not drawn) [Compound 91, (tert-butoxy)-N-[1-(6-{[2-(3-fluorophenyl)ethyl]amino}-5-[N-(3-pyridylmethyl)carbamoyl](2-pyridyl))pyrrolidin-3-yl]carboxamide]",4.73
5,"O=C(O)CC1CCN(c2ccc(C(=O)NCc3cccnc3)c(NCCc3cccc(F)c3)n2)C1 (stereo not drawn) [Compound 95, 2-[1-(6-{[2-(3-fluorophenyl)ethyl]amino}-5-[N-(3-pyridylmethyl)carbamoyl]-2-pyridyl)pyrrolidin-3-yl]acetic acid]",5.25
6,"CNC(=O)CNC(=O)c1ccc(N2CCC(F)(F)C2)nc1NCCc1cccc(F)c1 [Compound 97, 2-[(6-(3,3-difluoropyrrolidinyl)-2-{[2-(3-fluorophenyl)ethyl]amino}(3-pyridyl))carbonylamino]-N-methylacetamide]",6.03
7,"O=C(NCc1cccnc1)c1ccc(N2CCC(C(F)(F)F)C2)nc1NCCc1cccc(F)c1 (stereo not drawn) [Compound 99, (2-{[2-(3-fluorophenyl)ethyl]amino}-6-[3-(trifluoromethyl)pyrrolidinyl](3-pyridyl))-N-(3-pyridylmethyl)carboxamide]",5.60
8,"NCc1cccc(CNC(=O)c2ccc(N3CCCCC3)nc2NCCc2cccc(F)c2)n1 [Compound 101, N-{[6-(aminomethyl)(2-pyridyl)]methyl}(2-{[2-(3-fluorophenyl)ethyl]amino}-6-piperidyl(3-pyridyl))carboxamide]",6.48
9,"NCc1cccc(CNC(=O)c2ccc(N3CC[C@@H](O)C3)nc2NCCc2cccc(F)c2)n1 [Compound 103, (6-((3R)-3-hydroxypyrrolidinyl)-2-{[2-(3-fluorophenyl)ethyl]amino}(3-pyridyl))-N-{[6-(aminomethyl)(2-pyridyl)]methyl}carboxamide]",5.65
10,"CNC(=O)CNC(=O)c1ccc(N2CCCCC2)nc1NCCc1cccc(F)c1 [Compound 106, 2-[(2-{[2-(3-fluorophenyl)ethyl]amino}-6-piperidyl(3-pyridyl))carbonylamino]-N-methylacetamide]",5.95
11,"CC(C)(C)OC(=O)NCC1CCN(c2ccc(C(=O)NCc3cccnc3)c(NCCc3cccc(F)c3)n2)CC1 [Compound 109, (tert-butoxy)-N-{[1-(6-{[2-(3-fluorophenyl)ethyl]amino}-5-[N-(3-pyridylmethyl)carbamoyl](2-pyridyl))(4-piperidyl)]methyl}carboxamide]",5.34
12,"CC(C)(C)OC(=O)NC1CCN(c2ccc(C(=O)NCc3cccnc3)c(NCCc3cccc(F)c3)n2)CC1 [Compound 110, (tert-butoxy)-N-[1-(6-{[2-(3-fluorophenyl)ethyl]amino}-5-[N-(3-pyridylmethyl)carbamoyl](2-pyridyl))(4-piperidyl)]carboxamide]",4.79

# Continued by rising pIC50, values first:
row,pIC50,Structure (SMILES)
1,4.12,"CN(C)[C@@H]1CCN(c2ccc(C(=O)NCc3cccnc3)c(NCCc3cccc(F)c3)n2)C1 [Compound 92, (6-[(3R)-3-(dimethylamino)pyrrolidinyl]-2-{[2-(3-fluorophenyl)ethyl]amino}(3-pyridyl))-N-(3-pyridylmethyl)carboxamide]"
2,4.17,"COC[C@@H]1CCCN1c1ccc(C(=O)NCc2cccnc2)c(NCCc2cccc(F)c2)n1 [Compound 108, (6-[(2S)-2-(methoxymethyl)pyrrolidinyl]-2-{[2-(3-fluorophenyl)ethyl]amino}(3-pyridyl))-N-(3-pyridylmethyl)carboxamide]"
3,4.41,"NCC1CCN(c2ccc(C(=O)NCc3cccnc3)c(NCCc3cccc(F)c3)n2)CC1 [Compound 105, (6-[4-(aminomethyl)piperidyl]-2-{[2-(3-fluorophenyl)ethyl]amino}(3-pyridyl))-N-(3-pyridylmethyl)carboxamide]"
4,4.64,"NC1CCN(c2ccc(C(=O)NCc3cccnc3)c(NCCc3cccc(F)c3)n2)C1 (stereo not drawn) [Compound 86, (6-(3-aminopyrrolidinyl)-2-{[2-(3-fluorophenyl)ethyl]amino}(3-pyridyl))-N-(3-pyridylmethyl)carboxamide]"
5,4.94,"CS(=O)(=O)C1CCN(c2ccc(C(=O)NCc3cccnc3)c(NCCc3cccc(F)c3)n2)C1 (stereo not drawn) [Compound 107, (2-{[2-(3-fluorophenyl)ethyl]amino}-6-[3-(methylsulfonyl)pyrrolidinyl](3-pyridyl))-N-(3-pyridylmethyl)carboxamide]"
6,5.02,"CNC(=O)CNC(=O)c1ccc(N2CCC(O)CC2)nc1NCCc1cccc(F)c1 [Compound 90, 2-[(2-{[2-(3-fluorophenyl)ethyl]amino}-6-(4-hydroxypiperidyl)(3-pyridyl))carbonylamino]-N-methylacetamide]"
7,5.51,"NCc1cccc(CNC(=O)c2ccc(N3CC[C@H](O)C3)nc2NCCc2cccc(F)c2)n1 [Compound 102, (6-((3S)-3-hydroxypyrrolidinyl)-2-{[2-(3-fluorophenyl)ethyl]amino}(3-pyridyl))-N-{[6-(aminomethyl)(2-pyridyl)]methyl}carboxamide]"
8,5.53,"O=C(NCc1cccnc1)c1ccc(N2CCC(c3ccncc3)C2)nc1NCCc1cccc(F)c1 (stereo not drawn) [Compound 96, (2-{[2-(3-fluorophenyl)ethyl]amino}-6-(3-(4-pyridyl)pyrrolidinyl)(3-pyridyl))-N-(3-pyridylmethyl)carboxamide]"
9,5.81,"COC(=O)N1CCN(c2ccc(C(=O)NCc3cccnc3)c(NCCc3cccc(F)c3)n2)CC1 [Compound 85, methyl 4-(6-{[2-(3-fluorophenyl)ethyl]amino}-5-[N-(3-pyridylmethyl)carbamoyl]-2-pyridyl)piperazinecarboxylate]"
10,6.56,"O=C(NCc1cccnc1)c1ccc(N2CCC(F)(F)C2)nc1NCCc1cccc(F)c1 [Compound 100, (6-(3,3-difluoropyrrolidinyl)-2-{[2-(3-fluorophenyl)ethyl]amino}(3-pyridyl))-N-(3-pyridylmethyl)carboxamide]"
11,6.67,"NCc1cccc(CNC(=O)c2ccc(N3CCCC3)nc2NCCc2cccc(F)c2)n1 [Compound 98, N-{[6-(aminomethyl)(2-pyridyl)]methyl}(2-{[2-(3-fluorophenyl)ethyl]amino}-6-pyrrolidinyl(3-pyridyl))carboxamide]"
12,6.97,"O=C(NCc1cccnc1)c1ccc(N2CC[C@@H](F)C2)nc1NCCc1cccc(F)c1 [Compound 104, (6-((3R)-3-fluoropyrrolidinyl)-2-{[2-(3-fluorophenyl)ethyl]amino}(3-pyridyl))-N-(3-pyridylmethyl)carboxamide]"
